# In PMC4225846, “The Assessment of Cholinesterase from the Liver of Puntius Javanicus as Detection of Metal Ions” (The Scientific World Journal, 2014):
# Like-named read-outs stand apart in the source and are kept apart here.
# System: T1, P. javanicus ChE (cholinesterase from the liver of Puntius javanicus)
# T1 construct: gene BCHE
# Assay: Ellman assay (DTNB), […] nm, Michaelis-Menten fit
# Type: biochemical, Barbonymus gonionotus
# Details: 0.1 M sodium phosphate pH 7.0, ambient temperature, 0.1-2.5 mM substrate, 95% confidence interval in brackets
structure (smiles),measurement,setting,value
"CC(=O)SCC[N+](C)(C)C [ATC, acetylthiocholine iodide]",Km,read-out: ATC,410 µM
"CCCC(=O)SCC[N+](C)(C)C [BTC, S-Butyrylthiocholine iodide]",Km,read-out: BTC,230 µM
"CCC(=O)SCC[N+](C)(C)C [PTC, propionylthiocholine iodide]",Km,read-out: PTC,830 µM
